For this series the following is noted: 298.15 K; 101.33 kPa; Crystal; mass and volume measurments.

We go through one molecule from the NIST ThermoML archive (doi:10.1016/j.jct.2005.06.013).

Numbers after ± are expanded uncertainties.

On to `Oc1cccnc1O` [2,3-dihydroxypyridine], for which the mass density is 1130 ± 20 kg/m3.

A word on the mass density: it is mass per unit of volume.
